# Like-named read-outs stand apart in the source and are kept apart here. *1 amine or outer side, *2 acyl side, *3 side chain or, on linkers, in order; H or OH if unused. Where a SMILES comes first, the peptide text is derived from it. Bridges are numbered along the chain shown (N, C = ends). [ ]: non-standard residue; d: D form. Phe(4-NH2) = Nc1ccc(C[C@H](N)C(=O)O)cc1; 2Nal = N[C@@H](Cc1ccc2ccccc2c1)C(=O)O; AEF = NCCOc1ccc(C[C@H](N)C(=O)O)cc1; αMeL = CC(C)C[C@](C)(N)C(=O)O; CH2COCH2 = O=C(C[*:1])C[*:2]; 3Amb = NCc1cccc(C(=O)O)c1
# Legend:
# human IL-23R = molecular target: T1, human IL-23R (Homo sapiens, UniProt Q5VWK5); assay: Binding assay (NanoBRET displacement of fluorophore-labelled reference compound) for estimating binding affinity to human IL-23R
# T1 construct: UniProtKB—Q5VWK5, amino acids 22-629; secretion signal of the plasmid (Promega N1371); expressed in transfected cells
# T1 sequence (Q5VWK5 22-629): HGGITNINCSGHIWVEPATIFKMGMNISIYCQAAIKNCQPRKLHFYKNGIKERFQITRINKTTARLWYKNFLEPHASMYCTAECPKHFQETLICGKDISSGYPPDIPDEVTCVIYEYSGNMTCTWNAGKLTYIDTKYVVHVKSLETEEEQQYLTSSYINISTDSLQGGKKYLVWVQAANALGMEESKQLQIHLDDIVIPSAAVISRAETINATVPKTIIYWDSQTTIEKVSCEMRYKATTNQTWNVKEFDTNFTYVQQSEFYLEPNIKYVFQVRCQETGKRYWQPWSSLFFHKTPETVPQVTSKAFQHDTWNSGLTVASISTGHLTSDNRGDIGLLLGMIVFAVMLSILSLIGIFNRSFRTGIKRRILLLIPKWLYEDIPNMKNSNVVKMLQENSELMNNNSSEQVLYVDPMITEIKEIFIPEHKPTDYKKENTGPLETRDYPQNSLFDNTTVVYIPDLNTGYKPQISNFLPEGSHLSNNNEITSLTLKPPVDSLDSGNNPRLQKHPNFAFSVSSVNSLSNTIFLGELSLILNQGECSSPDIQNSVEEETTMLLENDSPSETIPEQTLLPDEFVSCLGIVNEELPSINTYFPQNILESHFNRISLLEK
# [1] = Peptide stability in simulated intestinal fluid (SIF); type: in vitro ADME; details: pig, Table 3-2, porcine pancreatin, pH 6.8, 37° C., 10 μM; for remaining at 1 h, 10 μM: read-out: SIF (% remaining 1 h); for remaining at 4 h, 10 μM: read-out: SIF (% remaining 4 h)
# Method in brief: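 Peptides incubated at 37°C with gentle shaking in SGF (NaCl, HCl, pH 1.2) or SIF (phosphate pH 6.8 with 10 g/L porcine pancreatin). Samples analysed by LC-HRMS; percent remaining at each timepoint calculated from absolute peak areas relative to time zero.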
# [2] = Peptide stability in simulated gastric fluid (SGF); type: in vitro ADME; details: pig, Table 3-3, porcine pepsin, pH 1.2, 37° C., 10 μM; for remaining at 1 h, 10 μM: read-out: SGF (% remaining 1 h); for remaining at 4 h, 10 μM: read-out: SGF (% remaining 4 h)
# Experimental: Determination of Peptide Stability in Simulated Gastric Fluid (SGF) and Simulated Intestinal Fluid (SIF)
# SGF was prepared by dissolving sodium chloride (0.2 g) in 50 mL of water. A volume of 0.7 mL of 10 M HCl was added to adjust the pH of the solution to 1.2 and the volume made up to 100 mL with water. […] SIF was prepared by dissolving monobasic potassium phosphate (0.68 g) in 50 mL of water and adjusting the pH to 6.8 with 1 M NaOH. The volume was subsequently made up to 100 mL with water. 200 mg porcine pancreatin (P1625, Sigma Aldrich) was gently dissolved into 20 mL preheated (37° C.) solution (10 g/L) immediately prior to the incubation.
# The incubation was performed at 37° C. with gentle shaking. […] After the last timepoint, the sampling plate was mixed for 10 min on a shaking table and centrifuged 10 min at 2200 g. 70 μL resulting supernatant was diluted with 150 μL water, mixed and centrifugated before analysis by liquid chromatography high resolution mass spectrometry. […] Percent remaining at each timepoint was calculated relative to timepoint zero based on absolute peak areas.
# [3] = Table 3-1, read-out: Ki hIL-23R
# [4] = simulated intestinal fluid (SIF) with porcine pancreatin
# [5] = simulated gastric fluid (SGF) with porcine pepsin
Ki (human IL-23R; [3]) [nM],"remaining at 1 h, 10 μM [1, 4] [%]","remaining at 4 h, 10 μM [1, 4] [%]","remaining at 4 h, 10 μM [2, 5] [%]","remaining at 1 h, 10 μM [2, 5] [%]",SMILES,Ki (human IL-23R) [nM],"remaining at 1 h, 10 μM [1] [%]","remaining at 4 h, 10 μM [1] [%]","remaining at 1 h, 10 μM [2] [%]","remaining at 4 h, 10 μM [2] [%]"
–,–,–,–,–,"CC(C)C[C@@H]1NC(=O)[C@H](Cc2c[nH]c3ccccc23)NC(=O)[C@H](Cc2c[nH]c3ccccc23)NC(=O)[C@@H]2CSCC(=O)CSC[C@H](NC(=O)[C@H](CO)NC(=O)[C@@H](NC(=O)[C@@H](N)CC(C)C)CSCC(=O)CSC[C@@H](C(=O)N[C@@H](CCCNC(=N)N)C(N)=O)NC1=O)C(=O)N[C@@H](Cc1c[nH]c3ccccc13)C(=O)N[C@@H](CCC(N)=O)C(=O)N2 [Compound 2, H-LC(1a)SC(2a)WQC(2a)WWLC(1a)R-[NH2]] (HELM PEPTIDE1{L.C.S.C.W.Q.C.W.W.L.C.R.[am]}|CHEM1{[O=C(C[*:1])C[*:2]]}|CHEM2{[O=C(C[*:1])C[*:2]]}$PEPTIDE1,CHEM1,2:R3-1:R1|PEPTIDE1,CHEM1,11:R3-1:R2|PEPTIDE1,CHEM2,4:R3-1:R1|PEPTIDE1,CHEM2,7:R3-1:R2$$$V2.0)",32.3,0,0,6,1
2.56,29,5,84,–,"CC(C)C[C@]1(C)NC(=O)[C@H](Cc2ccc3ccccc3c2)NC(=O)[C@H](Cc2ccc(OCCN)cc2)NC(=O)[C@@H]2CSCC(=O)CSC[C@H](NC(=O)[C@H](CO)NC(=O)c3cccc(c3)CNC(=O)CC[C@@H](C(=O)N[C@@H](CCCNC(=N)N)C(N)=O)NC1=O)C(=O)N[C@@H](Cc1c[nH]c3ccccc13)C(=O)N[C@@H](CCC(N)=O)C(=O)N2 [Compound 38, [(3-Aminomethyl)benzoyl](1c)*SC(2a)WQC(2a)[Y(2-aminoethoxy)][2-Nal][2-Me-Leu]E(1c)R-[NH2]] ([3Amb]SCWQC[AEF][2Nal][αMeL]ER-NH2; linker 3-6 via CH2COCH2; lactam N-10)",–,–,–,–,–
1.4,0,0,–,90,"CC(C)C[C@@H]1NC(=O)[C@H](Cc2ccc3ccccc3c2)NC(=O)[C@H](Cc2ccc(OCCN)cc2)NC(=O)[C@@H]2CSCC(=O)CSC[C@H](NC(=O)[C@H](CO)NC(=O)c3cccc(c3)CNC(=O)CC[C@@H](C(=O)N[C@@H](CCCNC(=N)N)C(N)=O)NC1=O)C(=O)N[C@@H](Cc1c[nH]c3ccccc13)C(=O)N[C@@H](CCC(N)=O)C(=O)N2 [Compound 39, [(3-Aminomethyl)benzoyl](1c)*SC(2a)WQC(2a)[Y(2-aminoethoxy)][2-Nal]LE(1c)R-[NH2]] ([3Amb]SCWQC[AEF][2Nal]LER-NH2; linker 3-6 via CH2COCH2; lactam N-10)",–,–,–,–,–
4.87,79,–,73,–,"CC(C)C[C@]1(C)NC(=O)[C@H](Cc2ccc3ccccc3c2)NC(=O)[C@H](Cc2ccc(OCCN)cc2)NC(=O)[C@@H]2CSCC(=O)CSC[C@H](NC(=O)[C@H](CO)NC(=O)c3cccc(c3)CNC(=O)CC[C@@H](C(=O)N[C@@H](CO)C(N)=O)NC1=O)C(=O)N[C@@H](Cc1c[nH]c3ccccc13)C(=O)N[C@@H](CCC(N)=O)C(=O)N2 [Compound 44, [(3-Aminomethyl)benzoyl](1c)*SC(2a)WQC(2a)[Y(2-aminoethoxy)][2-Nal][2-Me-Leu]E(1c)S-[NH2]]",–,–,–,–,–
12,–,34,84,76,"CC(C)C[C@]1(C)NC(=O)[C@H](Cc2ccc3ccccc3c2)NC(=O)[C@H](Cc2ccc(OCCN)cc2)NC(=O)[C@@H]2CSCC(=O)CSC[C@H](NC(=O)[C@H](CO)NC(=O)c3cccc(c3)CNC(=O)CC[C@@H](C(=O)N[C@@H](Cc3ccc(N)cc3)C(N)=O)NC1=O)C(=O)N[C@@H](Cc1c[nH]c3ccccc13)C(=O)N[C@@H](CCC(N)=O)C(=O)N2 [Compound 45, [(3-Aminomethyl)benzoyl](1c)*SC(2a)WQC(2a)[Y(2-aminoethoxy)][2-Nal][2-Me-Leu]E(1c)[F(4-NH2)]-[NH2]] ([3Amb]SCWQC[AEF][2Nal][αMeL]E[Phe(4-NH2)]-NH2; linker 3-6 via CH2COCH2; lactam N-10)",–,–,–,–,–
